Results taken from US20090099029A1, “Methods and substrates for conducting assays” (Invitrogen Corporation, priority 2005, published 2009).

Assays:
Assay in all cases: Further analysis of a plurality of inhibitors and a plurality of kinases (Table 5 inhibition results)
Type in all cases: biochemical
Design in all cases: scale not given here
[1] = molecular target: kinases of Table 5 (Homo sapiens, UniProt O75914); settings: for Inhibition level: kinase PAK3; for Inhibition Results (Level): kinase PAK3 (Part II, plate D4, Domain 1)
From the text: (§1) The wash solution is then discarded.

[2] = molecular target: T1, kinases of Table 5 (Homo sapiens, UniProt P51813); settings: inhibitor 100 uM; for Inhibition level: kinase BMX; for Inhibition Results (Level): kinase BMX (Part II, plate B12, Domain 1)
T1 sequence (P51813 1-675): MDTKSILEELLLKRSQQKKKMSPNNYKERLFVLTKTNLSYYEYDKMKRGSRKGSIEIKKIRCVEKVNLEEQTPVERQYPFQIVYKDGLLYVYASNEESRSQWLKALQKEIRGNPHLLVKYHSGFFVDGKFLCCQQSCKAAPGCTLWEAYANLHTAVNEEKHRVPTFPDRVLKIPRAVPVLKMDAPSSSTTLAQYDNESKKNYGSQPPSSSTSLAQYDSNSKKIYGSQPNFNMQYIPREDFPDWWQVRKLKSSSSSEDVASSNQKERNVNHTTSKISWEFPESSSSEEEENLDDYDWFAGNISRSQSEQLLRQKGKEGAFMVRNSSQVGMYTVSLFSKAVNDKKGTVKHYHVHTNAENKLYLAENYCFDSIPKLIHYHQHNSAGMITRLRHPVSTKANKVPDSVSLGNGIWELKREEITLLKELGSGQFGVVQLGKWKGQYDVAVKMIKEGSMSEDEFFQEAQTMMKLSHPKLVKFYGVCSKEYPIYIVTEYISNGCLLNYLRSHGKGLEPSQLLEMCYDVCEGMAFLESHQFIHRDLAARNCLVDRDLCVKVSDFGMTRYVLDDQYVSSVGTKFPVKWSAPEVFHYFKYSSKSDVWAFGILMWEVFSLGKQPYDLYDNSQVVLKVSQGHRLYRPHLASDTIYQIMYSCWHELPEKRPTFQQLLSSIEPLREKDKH
From the text: as §1

[3] = molecular target: T2, kinases of Table 5 (Homo sapiens, UniProt P29323); settings: kinase EPHB2 (Part I, plate E5, Domain 1)
T2 sequence (P29323 19-1055): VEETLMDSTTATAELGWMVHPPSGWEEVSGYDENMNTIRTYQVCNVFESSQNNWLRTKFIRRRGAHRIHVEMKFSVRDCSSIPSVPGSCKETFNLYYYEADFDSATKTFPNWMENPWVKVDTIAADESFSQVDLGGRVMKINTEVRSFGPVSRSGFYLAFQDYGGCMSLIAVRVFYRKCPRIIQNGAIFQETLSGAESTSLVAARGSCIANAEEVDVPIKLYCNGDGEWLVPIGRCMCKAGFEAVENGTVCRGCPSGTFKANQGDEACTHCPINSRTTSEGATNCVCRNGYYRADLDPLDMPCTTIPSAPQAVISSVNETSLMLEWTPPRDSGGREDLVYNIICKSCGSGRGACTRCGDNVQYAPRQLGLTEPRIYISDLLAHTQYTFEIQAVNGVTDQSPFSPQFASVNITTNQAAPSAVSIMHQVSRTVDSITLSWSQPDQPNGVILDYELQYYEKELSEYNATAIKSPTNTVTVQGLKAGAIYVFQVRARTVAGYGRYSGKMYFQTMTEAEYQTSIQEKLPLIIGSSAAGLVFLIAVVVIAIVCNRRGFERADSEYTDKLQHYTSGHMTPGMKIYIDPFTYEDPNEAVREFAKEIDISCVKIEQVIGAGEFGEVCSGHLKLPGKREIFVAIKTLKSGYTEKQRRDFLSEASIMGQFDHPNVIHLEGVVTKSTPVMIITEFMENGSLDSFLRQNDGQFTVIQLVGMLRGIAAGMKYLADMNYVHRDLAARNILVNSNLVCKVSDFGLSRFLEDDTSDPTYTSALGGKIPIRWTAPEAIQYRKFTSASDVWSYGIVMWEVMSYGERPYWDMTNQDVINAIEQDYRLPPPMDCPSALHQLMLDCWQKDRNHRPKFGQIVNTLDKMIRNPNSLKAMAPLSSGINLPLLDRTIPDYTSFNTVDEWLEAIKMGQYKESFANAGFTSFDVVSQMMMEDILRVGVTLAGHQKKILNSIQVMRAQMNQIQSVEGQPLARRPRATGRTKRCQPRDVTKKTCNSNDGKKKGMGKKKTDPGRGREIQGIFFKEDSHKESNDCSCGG
From the text: as §1

[4] = molecular target: T3, kinases of Table 5 (Homo sapiens, UniProt Q99759); settings: kinase MAP3K3 (Part I, plate A1, Domain 0)
T3 sequence (Q99759 1-626): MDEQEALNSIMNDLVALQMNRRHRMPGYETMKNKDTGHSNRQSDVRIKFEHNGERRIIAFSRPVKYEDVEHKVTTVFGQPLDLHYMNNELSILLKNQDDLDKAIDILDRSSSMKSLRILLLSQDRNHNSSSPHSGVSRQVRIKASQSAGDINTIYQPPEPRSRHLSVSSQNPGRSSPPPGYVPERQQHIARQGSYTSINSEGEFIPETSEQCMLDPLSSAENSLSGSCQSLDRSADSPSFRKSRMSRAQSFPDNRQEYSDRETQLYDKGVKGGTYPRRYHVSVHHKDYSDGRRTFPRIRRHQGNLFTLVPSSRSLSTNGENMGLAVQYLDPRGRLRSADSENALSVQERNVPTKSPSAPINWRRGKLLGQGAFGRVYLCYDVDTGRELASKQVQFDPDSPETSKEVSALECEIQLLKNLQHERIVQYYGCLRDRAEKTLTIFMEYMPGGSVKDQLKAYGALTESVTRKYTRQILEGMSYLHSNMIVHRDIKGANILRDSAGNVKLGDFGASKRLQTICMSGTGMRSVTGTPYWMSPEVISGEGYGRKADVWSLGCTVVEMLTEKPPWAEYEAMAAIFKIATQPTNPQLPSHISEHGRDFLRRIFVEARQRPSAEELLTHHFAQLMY
From the text: as §1

[5] = molecular target: kinases of Table 5 (Homo sapiens, UniProt P00519); settings: for Inhibition level: kinase ABL1; for Inhibition Results (Level): kinase ABL1 (Part II, plate B6, Domain 1)
From the text: as §1

kinases of Table 5 (Homo sapiens, UniProt P00519), sequence (P00519 whole entry): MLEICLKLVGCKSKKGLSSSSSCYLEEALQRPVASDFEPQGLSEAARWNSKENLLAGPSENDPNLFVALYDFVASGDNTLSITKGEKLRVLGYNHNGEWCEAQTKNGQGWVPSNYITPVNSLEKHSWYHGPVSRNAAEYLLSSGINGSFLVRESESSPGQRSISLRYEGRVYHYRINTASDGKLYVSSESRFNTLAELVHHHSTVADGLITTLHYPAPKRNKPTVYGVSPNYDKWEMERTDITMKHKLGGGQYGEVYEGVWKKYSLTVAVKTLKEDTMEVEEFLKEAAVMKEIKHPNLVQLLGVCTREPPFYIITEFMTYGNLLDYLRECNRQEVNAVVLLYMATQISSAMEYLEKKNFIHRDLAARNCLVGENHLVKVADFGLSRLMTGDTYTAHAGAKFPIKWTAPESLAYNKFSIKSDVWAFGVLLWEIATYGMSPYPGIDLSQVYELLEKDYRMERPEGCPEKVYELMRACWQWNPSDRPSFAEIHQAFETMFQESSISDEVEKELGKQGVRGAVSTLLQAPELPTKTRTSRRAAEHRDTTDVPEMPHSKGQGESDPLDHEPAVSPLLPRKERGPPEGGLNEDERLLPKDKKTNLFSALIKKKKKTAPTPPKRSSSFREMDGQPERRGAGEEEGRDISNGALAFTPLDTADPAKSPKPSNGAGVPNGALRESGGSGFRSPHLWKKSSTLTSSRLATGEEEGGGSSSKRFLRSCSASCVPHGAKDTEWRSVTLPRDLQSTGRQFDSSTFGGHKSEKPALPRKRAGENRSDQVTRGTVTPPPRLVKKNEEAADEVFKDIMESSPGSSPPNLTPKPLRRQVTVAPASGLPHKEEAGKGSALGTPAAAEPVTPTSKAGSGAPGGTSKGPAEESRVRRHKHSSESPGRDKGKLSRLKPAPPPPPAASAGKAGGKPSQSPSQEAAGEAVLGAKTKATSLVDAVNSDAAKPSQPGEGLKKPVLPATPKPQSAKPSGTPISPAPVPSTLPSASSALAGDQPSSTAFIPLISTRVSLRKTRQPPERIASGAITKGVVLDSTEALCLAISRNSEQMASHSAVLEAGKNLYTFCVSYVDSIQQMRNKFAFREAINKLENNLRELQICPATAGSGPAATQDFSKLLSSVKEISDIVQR
kinases of Table 5 (Homo sapiens, UniProt O75914), sequence (O75914 whole entry): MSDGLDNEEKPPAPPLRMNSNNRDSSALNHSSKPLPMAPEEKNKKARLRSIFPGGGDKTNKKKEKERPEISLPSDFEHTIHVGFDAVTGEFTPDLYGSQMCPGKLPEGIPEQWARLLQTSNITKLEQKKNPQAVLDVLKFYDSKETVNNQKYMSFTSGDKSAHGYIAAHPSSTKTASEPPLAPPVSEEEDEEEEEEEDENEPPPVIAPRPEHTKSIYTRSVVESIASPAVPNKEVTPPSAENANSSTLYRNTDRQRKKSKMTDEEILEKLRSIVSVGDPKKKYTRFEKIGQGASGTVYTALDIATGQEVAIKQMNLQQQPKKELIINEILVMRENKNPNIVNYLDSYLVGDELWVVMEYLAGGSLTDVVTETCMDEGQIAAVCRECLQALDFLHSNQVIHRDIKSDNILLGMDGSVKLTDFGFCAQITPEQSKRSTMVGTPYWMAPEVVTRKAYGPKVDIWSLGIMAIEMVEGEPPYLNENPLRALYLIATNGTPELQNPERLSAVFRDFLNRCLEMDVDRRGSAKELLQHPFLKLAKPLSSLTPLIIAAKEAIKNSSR

Row | Structure (SMILES) | Inhibition level ([1]; inhibitor 100 uM) | Inhibition level [2] | Inhibition Results (Level) ([3]; inhibitor 100 uM) | Inhibition Results (Level) ([4]; inhibitor 100 uM) | Inhibition level ([5]; inhibitor 100 uM) | Inhibition Results (Level) ([1]; inhibitor 100 uM) | Inhibition Results (Level) [2] | further results
1 | N#C/C(=C/c1ccc(O)c(O)c1)C(=O)NCc1ccccc1 [AG 490] | 1 | 0 | 2 | 2 | 0 |  |  | 
2 | COc1cc2ncnc(Nc3cccc(Cl)c3)c2cc1OC [AG 1478] | 2 | 1 | 2 | 2 | 1 |  |  | 
3 | O=c1c(-c2ccc(O)cc2)coc2cc(O)cc(O)c12 [Genistein] | 2 | 0 | 2 | 2 | 0 |  |  | Inhibition level ([1]; concentration not given): 0; Inhibition Results (Level) ([3]; inhibitor <3.7 mM): 0; Inhibition Results (Level) ([4]; inhibitor <3.7 mM): 2; Inhibition level ([5]; concentration not given): 0
4 | O=S(=O)(NCCNC/C=C/c1ccc(Br)cc1)c1cccc2cnccc12 [H-89] |  |  | 2 | 2 |  | 2 | 1 | Inhibition Results (Level) ([5]; inhibitor 100 uM): 0
5 | CC(C)(C)n1nc(-c2ccc(Cl)cc2)c2c(N)ncnc21 [PP2] | 2 | 2 | 2 | 2 |  |  |  | 
6 | O=c1c(O)c(-c2ccc(O)c(O)c2)oc2cc(O)cc(O)c12 [Quercetin] |  |  | 2 | 0 |  | 2 | 0 | 
7 | Cn1cc(C2=C(c3cn(CCCSC(=N)N)c4ccccc34)C(=O)NC2=O)c2ccccc21 [Ro-31-8220] | 2 | 2 | 2 | 0 | 2 |  |  | Inhibition level ([1]; concentration not given): 2; Inhibition Results (Level) ([3]; inhibitor 90 uM): 0; Inhibition Results (Level) ([4]; inhibitor 90 uM): 2; Inhibition level ([5]; concentration not given): 0
8 | CC(=O)c1c(O)c(C)c(O)c(Cc2c(O)c3c(c(C(=O)/C=C/c4ccccc4)c2O)OC(C)(C)C=C3)c1O [Rottlerin (Mallotoxin)] |  |  | 2 | 2 |  | 0 | 1 | Inhibition Results (Level) ([5]; inhibitor 100 uM): 0
9 | CN[C@@H]1C[C@H]2O[C@@](C)([C@@H]1OC)n1c3ccccc3c3c4c(c5c6ccccc6n2c5c31)C(=O)NC4 [Staurosporine] |  |  |  |  |  |  |  | Inhibition Results (Level) ([4]; inhibitor 21.5 uM): 2
